Holding throughout (type): in vivo, mouse
Assay [1] deals with Pten^pc−/−; Trp53^pc−/− prostate tumors. Put plainly: Tumor growth by MRI in Pten^pc−/−; Trp53^pc−/− mice under drug or antibody treatment. The following applies: for tumor volume: individual mice. As for the experimental part: Mice were allocated at random to experimental groups and studies were performed in an unblended manner. For treatment with the CXCR2 antagonist, SB225002 (Cayman Chemical #13336) was dissolved in DMSO (10 mg/ml) and diluted in vehicle (0.9% NaCl, 0.3% Tween 80) for in vivo administration. Mice (4 months of age) were treated daily for 10 days by intraperitoneal injection (5 mg/kg) and prostate tumor tissue (anterior lobes) was subjected to Flow Cytometry and histological analysis. For MRI analysis, mice (4 months of age) were treated daily for 21 days (Pten^pc−/−; Zbtb7a^pc−/−), for 14 days (Pten^pc−/−; Trp53^pc−/−) or for 14 days (Pten^pc−/−; Pml^pc−/−) by intraperitoneal injection (5 mg/kg). For depletion of Gr-1+/CD11b+ cells, Ly6G-depletion antibody (1A8, BioXcell) and control Rat IgG2a antibody (BioXcell) were diluted in phosphate-buffered saline (PBS) for in vivo administration. Mice (4 months of age) were treated every other day for 10 days by intraperitoneal injection (200-300 μg/mouse). InVivoMAb anti-mouse Ly6G/Ly6C (Gr-1) antibody, clone RB6-8C5 (BE0075, BioXcell), and control Rat IgG2b antibody (BE0090, BioXcell) were diluted in PBS and Pten^pc−/−; Trp53^pc−/− mice were treated every other day for 14 days by intraperitoneal injection (200 μg/mouse). For neutralization of CXCL5, anti-Mouse CXCL5 antibody (Leinco Technologies) and control Rat IgG2a antibody (BioXcell) were diluted in PBS and injected every other day for 21 days by intraperitoneal injection (20 μg/mouse). Tumor volume quantification was performed by using VivoQuant and Image J software. All mouse prostate MRI imaging analysis was performed at Small Animal Imaging Core at BIDMC and acquired on an ASPECT Model M2 1T tabletop scanner.

For assay [2], the system named is Pten^pc−/−; Zbtb7a^pc−/− prostate tumors. Put plainly: Flow cytometry of immune infiltrate in treated Pten^pc−/−; Zbtb7a^pc−/− prostate tumors. The following applies: Zbtb7a^pc−/− prostate tumors after treatment. As for the experimental part:
(§1) Mice were allocated at random to experimental groups and studies were performed in an unblended manner. For treatment with the CXCR2 antagonist, SB225002 (Cayman Chemical #13336) was dissolved in DMSO (10 mg/ml) and diluted in vehicle (0.9% NaCl, 0.3% Tween 80) for in vivo administration. Mice (4 months of age) were treated daily for 10 days by intraperitoneal injection (5 mg/kg) and prostate tumor tissue (anterior lobes) was subjected to Flow Cytometry and histological analysis. For MRI analysis, mice (4 months of age) were treated daily for 21 days (Pten^pc−/−; Zbtb7a^pc−/−), for 14 days (Pten^pc−/−; Trp53^pc−/−) or for 14 days (Pten^pc−/−; Pml^pc−/−) by intraperitoneal injection (5 mg/kg). For depletion of Gr-1+/CD11b+ cells, Ly6G-depletion antibody (1A8, BioXcell) and control Rat IgG2a antibody (BioXcell) were diluted in phosphate-buffered saline (PBS) for in vivo administration. Mice (4 months of age) were treated every other day for 10 days by intraperitoneal injection (200-300 μg/mouse). […] Tumor volume quantification was performed by using VivoQuant and Image J software. […]
(§2) For Flow Cytometry, spleen and lymph node single cell suspensions were prepared by mashing the tissue in 2% FBS/PBS. […] All staining mixtures were analyzed on a BD LSR II flow cytometer (Becton Dickinson). Resulting profiles were further processed and analyzed using the FlowJo 8.7 software.
(Flow cytometry measures light scatter and fluorescence of single cells or particles in a stream.)

The test system of assay [3] is Pten^pc−/−; Trp53^pc−/− prostate tumors. Put plainly: Flow cytometry of immune infiltrate in treated Pten^pc−/−; Trp53^pc−/− prostate tumors. The note with it: Trp53^pc−/− prostate tumors after treatment. As for the experimental part:
as §1, §2

For assay [4], the system named is Pten^pc−/−; Pml^pc−/− prostate tumors. Put plainly: Flow cytometry of immune infiltrate in treated Pten^pc−/−; Pml^pc−/− prostate tumors. The following applies: Pml^pc−/− prostate tumors after treatment. As for the experimental part: as §1, §2
Assay [5] deals with Pten^pc−/−; Zbtb7a^pc−/− tumors (anterior prostate lobes). Put plainly: Histological analysis of treated Pten^pc−/−; Zbtb7a^pc−/− tumors. The following applies: Zbtb7a^pc−/− mice, 10 days of i.p. treatment, versus vehicle or control IgG. As for the experimental part:
as §1, with “mg/kg).” for “mg/kg). For depletion of Gr-1+/CD11b+ cells, Ly6G-depletion antibody (1A8, BioXcell) and control Rat IgG2a antibody (BioXcell) were diluted in phosphate-buffered saline (PBS) for in vivo administration. Mice (4 months of age) were treated every other day for 10 days by intraperitoneal injection (200-300 μg/mouse).”
For western blotting, cell lysates were prepared by homogenizing tumor tissue with NP40 Buffer (Boston Bioproducts) supplemented with protease (Roche) and HALT phosphatase inhibitor cocktails (Thermo Scientific) and subsequently subjected to SDS-Gel separation (Invitrogen) and western blotting. […] Western blots were quantified using Image J software. […] Embedding and hematoxylin and eosin staining of sections were performed by the Histology Core at BIDMC and analyzed by a pathologist. […]

Several values for one entry are separate records, joined by “and”; a condition that tells them apart may be missing. Equal values may be shown once. Entries after “also recorded” stand apart in the source; their conditions may differ.

`O=C(Nc1ccc([N+](=O)[O-])cc1O)Nc1ccccc1Br` [SB225002]: the tumor volume was 67.016 mm3 and 32.276 mm3 and 66.382 mm3 in assay [1] (Pten-Trp53, CXCR2i (SB225002 5 mg/kg i.p. daily), row 0 = day 0 baseline, MRI); 53.809 mm3 and 31.739 mm3 and 68.018 mm3 in assay [1] (Pten-Trp53, CXCR2i, row 1 (weekly MRI)); 51.807 mm3 and 39.795 mm3 and 63.477 mm3 in assay [1] (Pten-Trp53, CXCR2i, row 2 (weekly MRI, 2 weeks on treatment)). Further, the tumor growth entry in assay [1] (Pten^pc−/−, Trp53^pc−/− mice, versus vehicle or control IgG) is recorded as “significantly suppressed the tumor growth; also recorded: significant inhibition of tumor growth”. Besides, the “intra-tumoral Gr-1+/CD11b+ cells” value in assay [2], in assay [3] and in assay [4] was “decrease of Gr-1+/CD11b+ cells” in each case. Further, in assay [3], the “Treg cells (Foxp3+)” value is reported as “less Foxp3+ cells; also recorded: less Treg cells”. For the same compound, the “tumor burden by histological analysis” value in assay [5] was “reduced tumor burden”; in assay [5] (listed as CXCR2 inhibitor), “significantly diminished tumor involvement”.

These data come from patent US20210301349A1, “COMPOSITIONS AND METHODS FOR TREATING A TUMOR SUPPRESSOR DEFICIENT CANCER” (BETH ISRAEL DEACONESS MEDICAL CENTER, INC., priority 2016, published 2021).
